Where a name gives a salt, the structure may show the parent alone.
Legend:
cMYC = assay: Inhibition of cMYC expression (mRNA, real-time PCR) in MV4-11 cells; format: cell-based; settings: Human AML MV4-11 cells, 3 h; for IC50: read-out: c-myc activity
Protocol: MV4-11 cells (CRL-9591) were plated at a density of 2.5×10^4 cells per well in 96 well U-bottom plates and treated with increasing concentrations of test compound or DMSO (0.1%) in IMDM media containing 10% FBS and penicillin/streptomycin, and incubated for 3 h at 37° C. Triplicate wells were used for each concentration. Cells were pelleted by centrifugation and harvested using the mRNA Catcher PLUS kit according to manufacturer's instructions. The eluted mRNA isolated was then used in a one-step quantitative real-time PCR reaction, using components of the RNA UltraSense™ One-Step Kit (Life Technologies) together with Applied Biosystems TaqMan® primer-probes for cMYC and Cyclophilin. Real-time PCR plates were run on a ViiA™7 real time PCR machine (Applied Biosystems), data was analyzed, normalizing the Ct values for cMYC to an internal control, prior to determining the fold expression of each sample, relative to the control.

[1] = molecular target: T1, Brd4 bromodomain 1 (BRD4(1)) (Homo sapiens, UniProt O60885); assay: AlphaScreen inhibition of tetra-acetylated histone H4 binding to BRD4(1); settings: BRD4(1) at 20 nM, tetra-acetylated histone H4 peptide, 30 min incubation; read-out: Alpha Screen BRD4(1)
T1 construct: N-terminally His-tagged bromodomains (BRD4(1) at 20 nM and BRD4(2) at 100 nM); made in house; host or cells: E. coli BL21(DE3)
Protocol: (§1) Proteins were cloned and overexpressed with a N-terminal 6×His tag, then purified by nickel affinity followed by size exclusion chromatography. Briefly, E. coli BL21(DE3) cells were transformed with a recombinant expression vector encoding N-terminally Nickel affinity tagged bromodomains from Brd2, Brd3, Brd4. Cell cultures were incubated at 37° C. with shaking to the appropriate density and induced overnight with IPTG. The supernatant of lysed cells was loaded onto Ni-IDA column for purification. Eluted protein was pooled, concentrated and further purified by size exclusion chromatography. Fractions representing monomeric protein were pooled, concentrated, aliquoted, and frozen at −80° C. for use in subsequent experiments.
(§2) Binding of tetra-acetylated histone H4 peptide (Millipore) and BET bromodomains was confirmed by Amplified Luminescent Proximity Homogenous Assay (AlphaScreen). N-terminally His-tagged bromodomains (BRD4(1) at 20 nM and BRD4(2) at 100 nM) and biotinylated tetra-acetylated histone H4 (10-25 nM) were incubated in the presence of nickel chelate acceptor beads and streptavidin donor beads (PerkinAlmer, 6760000K) added to a final concentration of 2 μg/ml under green light in a white 96 well microtiter plate (Greiner). For inhibition assays, serially diluted compounds were added to the reaction mixtures in a 0.1% final concentrations of DMSO. Final buffer concentrations were 50 mM HEPES, 100 mM NaCl and 0.1% BSA buffer, pH 7.4 and optimized to 30 min incubation time. Assay plates were read at 570 nm on a Synergy H4 Plate Reader (Biotek). IC50 values were determined from a dose response curve.

[2] = molecular target: T2, Brd 4 bromodomain 2 (BRD4(2)) (Homo sapiens, UniProt O60885); assay: AlphaScreen inhibition of tetra-acetylated histone H4 binding to BRD4(2); settings: BRD4(2) at 100 nM, tetra-acetylated histone H4 peptide, 30 min incubation; for IC50: read-out: Alpha Screen BRD4(2)
T2 construct: N-terminally His-tagged bromodomains (BRD4(1) at 20 nM and BRD4(2) at 100 nM); made in house; host or cells: E. coli BL21(DE3)
Protocol: as §1, §2

hIL-6 = assay: Inhibition of hIL-6 mRNA transcription in LPS-stimulated U937 cells; format: cell-based; settings: Homo sapiens, U-937, PMA-differentiated U937 cells, 1 h pretreatment, LPS 3 h, read-out: IL-6 activity
Protocol: Human leukemic monocyte lymphoma U937 cells (CRL-1593.2) were plated at a density of 3.2×10^4 cells per well in a 96-well plate in 100 μL RPMI-1640 containing 10% FBS and penicillin/streptomycin, and differentiated into macrophages for 3 days in 60 ng/mL PMA ([…]) at 37° C. in 5% CO2 prior to the addition of compound. The cells were pretreated for 1 h with increasing concentrations of test compound in 0.1% DMSO prior to stimulation with 1 ug/mL lipopolysaccharide from Escherichia coli. Triplicate wells were used for each concentration. The cells were incubated at 37° C., 5% CO2 for 3 h before the cells were harvested. At time of harvest, media was removed and cells were rinsed in 200 μL PBS. Cells were harvested using the mRNA Catcher PLUS kit according to manufacturer's instructions. The eluted mRNA was then used in a one-step quantitative real-time PCR reaction using components of the RNA UltraSense™ One-Step Kit (Life Technologies) together with Applied Biosystems TaqMan® primer-probes for hIL-6 and Cyclophilin. Real-time PCR plates were run on a ViiA™7 real time PCR machine (Applied Biosystems), data was analyzed, normalizing the Ct values for hIL-6 to an internal control, prior to determining the fold expression of each sample, relative to the control.

MV4-11 cells = assay: Inhibition of cell proliferation in MV4-11 cells (Cell Titer Aqueous One); format: cell-based; settings: Human AML MV-4-11 cells, 72 h; for IC50: MV4-11
Protocol: MV4-11 cells (CRL-9591) were plated at a density of 5×10^4 cells per well in 96 well flat bottom plates and treated with increasing concentrations of test compound or DMSO (0.1%) in IMDM media containing 10% FBS and penicillin/streptomycin. Triplicate wells were used for each concentration and a well containing only media was used as a control. Plates were incubated at 37° C., 5% CO2 for 72 h before adding 20 μL of the Cell Titer Aqueous One Solution (Promega) to each well and incubated at 37° C., 5% CO2 for an additional 3-4 h. The absorbance was read at 490 nm in a spectrophotometer and the percentage of cell titer relative to DMSO-treated cells was calculated after correcting for background by subtracting the blank well's signal. IC50 values were calculated using the GraphPad Prism software.

Structure (SMILES) | IC50 (cMYC) | IC50 [1] | Alpha Screen BRD4(2) [2] | IC50 (hIL-6) | IC50 (MV4-11 cells) | IC50 [2] | c-myc activity (cMYC) | Cell Proliferation activity (MV4-11 cells)
Cn1nnc2ccc(-c3[nH]c(-c4ccccc4)nc3-c3n[nH]c(=O)n3C3CC3)cc21 [Example 14, 4-cyclopropyl-3-(5-(1-methyl-1H-benzo[d][1,2,3]triazol-6-yl)-2-phenyl-1H-imidazol-4-yl)-1H-1,2,4-triazol-5(4H)-one hydrochloride] | 3000 to 30000 nM | ≤ 300 nM |  | 3000 to 30000 nM | 3000 to 30000 nM | ≤ 300 nM |  | 
Cn1ncc2cc(-c3[nH]c(-c4ccccc4)nc3-c3n[nH]c(=O)n3C3CC3)ccc21 [Example 10, 4-cyclopropyl-3-(5-(1-methyl-1H-indazol-5-yl)-2-phenyl-1H-imidazol-4-yl)-1H-1,2,4-triazol-5(4H)-one hydrochloride] |  | 3000 to 30000 nM |  |  |  | 300 to 3000 nM | Not Active | Not Active
CC(=O)c1cc(-c2[nH]c(-c3ccccc3)nc2-c2n[nH]c(=O)n2C2CC2)ccc1F [Example 8, 3-(5-(3-acetyl-4-fluorophenyl)-2-phenyl-1H-imidazol-4-yl)-4-cyclopropyl-1H-1,2,4-triazol-5(4H)-one hydrochloride] |  | ≤ 300 nM | Not Active | 3000 to 30000 nM |  |  | Not Active | Not Active

The next lines start with results.

IC50 (cMYC) | IC50 [1] | Alpha Screen BRD4(2) [2] | IC50 (hIL-6) | IC50 (MV4-11 cells) | IC50 [2] | Structure (SMILES) | c-myc activity (cMYC) | Cell Proliferation activity (MV4-11 cells)
3000 to 30000 nM | 300 to 3000 nM | Not Active | 3000 to 30000 nM | 3000 to 30000 nM |  | CC(=O)c1cc(F)cc(-c2[nH]c(-c3ccccc3)nc2-c2n[nH]c(=O)n2C2CC2)c1 [Example 9, 3-(5-(3-acetyl-5-fluorophenyl)-2-phenyl-1H-imidazol-4-yl)-4-cyclopropyl-1H-1,2,4-triazol-5(4H)-one hydrochloride] |  | 
3000 to 30000 nM | ≤ 300 nM |  | 3000 to 30000 nM | 3000 to 30000 nM | 3000 to 30000 nM | CC(=O)c1cccc(-c2[nH]c(-c3ccccc3)nc2-c2n[nH]c(=O)n2C2CC2)c1 [Example 1, 3-(5-(3-acetylphenyl)-2-phenyl-1H-imidazol-4-yl)-4-cyclopropyl-1H-1,2,4-triazol-5(4H)-one hydrochloride] |  | 
3000 to 30000 nM | ≤ 300 nM | Not Active | 3000 to 30000 nM | 3000 to 30000 nM |  | Cn1ncc2ccc(-c3[nH]c(-c4ccccc4)nc3-c3n[nH]c(=O)n3C3CC3)cc21 [Example 7, 4-cyclopropyl-3-(5-(1-methyl-1H-indazol-6-yl)-2-phenyl-1H-imidazol-4-yl)-1H-1,2,4-triazol-5(4H)-one hydrochloride] |  | 

— patent US10292968B2, “Substituted heterocycles as bromodomain inhibitors” (Zenith Epigenetics Ltd., priority 2014, dated 2019)
